In ChEMBL document CHEMBL4261593, “Synthesis and antibacterial activity of novel 3-O-arylalkylcarbamoyl-3-O-descladinosyl-9-O-(2-chlorobenzyl)oxime clarithromycin derivatives” (2018):
≈ marks a conversion by molar mass, not a printed value.

Assays:
Format in all cases: functional
Streptococcus pneumoniae [1] = experiment: Antibacterial activity against erythromycin-resistant Streptococcus pneumoniae AB11 expressing ermB and mefA genes after 24 hrs by broth dilution assay; details: AB11, 24 h
Bacillus subtilis = experiment: Antibacterial activity against penicillin-susceptible Bacillus subtilis ATCC 9372 after 24 hrs by broth dilution assay; details: ATCC 9372, 24 h
Staphylococcus aureus [2] = experiment: Antibacterial activity against […] Staphylococcus aureus ATCC 29213 after 24 hrs by broth dilution assay; details: ATCC 29213, 24 h
Streptococcus pneumoniae [3] = experiment: Antibacterial activity against erythromycin-resistant Streptococcus pneumoniae A22072 expressing mefA gene after 24 hrs by broth dilution assay; details: A22072, 24 h
Escherichia coli = experiment: Antibacterial activity against penicillin-susceptible Escherichia coli ATCC 25922 after 24 hrs by broth dilution assay; details: ATCC 25922, 24 h
Pseudomonas aeruginosa = experiment: Antibacterial activity against penicillin-susceptible Pseudomonas aeruginosa ATCC 27853 after 24 hrs by broth dilution assay; details: ATCC 27853, 24 h
Staphylococcus aureus [4] = experiment: Antibacterial activity against penicillin-resistant Staphylococcus aureus ATCC 31007 after 24 hrs by broth dilution assay; details: ATCC 31007, 24 h
Staphylococcus aureus [5] = experiment: Potency index, ratio of CAM MIC to compound MIC for antibacterial activity against penicillin-resistant Staphylococcus aureus ATCC 31007
Streptococcus pneumoniae [6] = experiment: Antibacterial activity against erythromycin-resistant Streptococcus pneumoniae B1 expressing ermB gene after 24 hrs by broth dilution assay; details: B1, 24 h
Streptococcus pyogenes [7] = experiment: Antibacterial activity against erythromycin-susceptible Streptococcus pyogenes 1 after 24 hrs by broth dilution assay; details: Streptococcus pyogenes, 1, 24 h
Streptococcus pyogenes [8] = experiment: Antibacterial activity against erythromycin-resistant Streptococcus pyogenes 2 after 24 hrs by broth dilution assay; details: Streptococcus pyogenes, 2, 24 h
Staphylococcus aureus [9] = experiment: Antibacterial activity against erythromycin-susceptible Staphylococcus aureus ATCC 25923 after 24 hrs by broth dilution assay; details: ATCC 25923, 24 h
Staphylococcus aureus [10] = experiment: Potency index, ratio of AZM MIC to compound MIC for antibacterial activity against penicillin-resistant Staphylococcus aureus ATCC 31007
Streptococcus pyogenes [11] = experiment: Potency index, ratio of AZM MIC to compound MIC for antibacterial activity against erythromycin-resistant Streptococcus pyogenes 2
Streptococcus pyogenes [12] = experiment: Potency index, ratio of CAM MIC to compound MIC for antibacterial activity against erythromycin-resistant Streptococcus pyogenes 2

SMILES	MIC (Streptococcus pneumoniae [1]) [µg/mL]	MIC (Bacillus subtilis) [µg/mL]	MIC (Staphylococcus aureus [2]) [µg/mL]	MIC (Streptococcus pneumoniae [3]) [µg/mL]	MIC (Escherichia coli) [µg/mL]	MIC (Pseudomonas aeruginosa) [µg/mL]	MIC (Staphylococcus aureus [4]) [µg/mL]	Ratio (Staphylococcus aureus [5])	MIC (Streptococcus pneumoniae [6]) [µg/mL]	MIC (Streptococcus pyogenes [7]) [µg/mL]	MIC (Streptococcus pyogenes [8]) [µg/mL]	MIC (Staphylococcus aureus [9]) [µg/mL]	Ratio (Staphylococcus aureus [10])	Ratio (Streptococcus pyogenes [11])	Ratio (Streptococcus pyogenes [12])
CC[C@H]1OC(=O)[C@H](C)[C@@H](OC(=O)NCc2ccccc2)[C@H](C)[C@@H](O[C@@H]2O[C@H](C)C[C@H](N(C)C)[C@H]2O)[C@](C)(OC)C[C@@H](C)/C(=N/OCc2ccccc2Cl)[C@H](C)[C@@H](O)[C@]1(C)O	128 (≈ 148 µM)	2 (≈ 2.32 µM)	128 (≈ 148 µM)	0.5 (≈ 0.58 µM)	128 (≈ 148 µM)	128 (≈ 148 µM)	4 (≈ 4.64 µM)	64	128 (≈ 148 µM)	2 (≈ 2.32 µM)	16 (≈ 18.6 µM)	8 (≈ 9.28 µM)	64	–	–
CC[C@H]1OC(=O)[C@H](C)[C@@H](OC(=O)NCCc2ccc(F)cc2)[C@H](C)[C@@H](O[C@@H]2O[C@H](C)C[C@H](N(C)C)[C@H]2O)[C@](C)(OC)C[C@@H](C)/C(=N/OCc2ccccc2Cl)[C@H](C)[C@@H](O)[C@]1(C)O	128 (≈ 143 µM)	2 (≈ 2.24 µM)	128 (≈ 143 µM)	1 (≈ 1.12 µM)	128 (≈ 143 µM)	128 (≈ 143 µM)	4 (≈ 4.47 µM)	–	128 (≈ 143 µM)	2 (≈ 2.24 µM)	8 (≈ 8.94 µM)	4 (≈ 4.47 µM)	–	–	–
CC[C@H]1OC(=O)[C@H](C)[C@@H](OC(=O)NCCc2ccc(OC)c(OC)c2)[C@H](C)[C@@H](O[C@@H]2O[C@H](C)C[C@H](N(C)C)[C@H]2O)[C@](C)(OC)C[C@@H](C)/C(=N/OCc2ccccc2Cl)[C@H](C)[C@@H](O)[C@]1(C)O	128 (≈ 137 µM)	4 (≈ 4.27 µM)	128 (≈ 137 µM)	1 (≈ 1.07 µM)	128 (≈ 137 µM)	128 (≈ 137 µM)	8 (≈ 8.54 µM)	–	128 (≈ 137 µM)	1 (≈ 1.07 µM)	16 (≈ 17.1 µM)	8 (≈ 8.54 µM)	–	–	–
CC[C@H]1OC(=O)[C@H](C)[C@@H](OC(=O)NCCc2ccccc2Cl)[C@H](C)[C@@H](O[C@@H]2O[C@H](C)C[C@H](N(C)C)[C@H]2O)[C@](C)(OC)C[C@@H](C)/C(=N/OCc2ccccc2Cl)[C@H](C)[C@@H](O)[C@]1(C)O	128 (≈ 141 µM)	2 (≈ 2.2 µM)	128 (≈ 141 µM)	1 (≈ 1.1 µM)	128 (≈ 141 µM)	128 (≈ 141 µM)	8 (≈ 8.78 µM)	–	128 (≈ 141 µM)	2 (≈ 2.2 µM)	16 (≈ 17.6 µM)	8 (≈ 8.78 µM)	–	–	–
CC[C@H]1OC(=O)[C@H](C)[C@@H](OC(=O)NCCc2cccc(OC)c2)[C@H](C)[C@@H](O[C@@H]2O[C@H](C)C[C@H](N(C)C)[C@H]2O)[C@](C)(OC)C[C@@H](C)/C(=N/OCc2ccccc2Cl)[C@H](C)[C@@H](O)[C@]1(C)O	128 (≈ 141 µM)	4 (≈ 4.41 µM)	128 (≈ 141 µM)	1 (≈ 1.1 µM)	128 (≈ 141 µM)	128 (≈ 141 µM)	4 (≈ 4.41 µM)	–	128 (≈ 141 µM)	2 (≈ 2.21 µM)	8 (≈ 8.82 µM)	8 (≈ 8.82 µM)	–	–	–
CC[C@H]1OC(=O)[C@H](C)[C@@H](O)[C@H](C)[C@@H](O[C@@H]2O[C@H](C)C[C@H](N(C)C)[C@H]2O)[C@](C)(OC)C[C@@H](C)/C(=N/OCc2ccccc2Cl)[C@H](C)[C@@H](O)[C@]1(C)O	128 (≈ 175 µM)	16 (≈ 21.9 µM)	128 (≈ 175 µM)	4 (≈ 5.48 µM)	128 (≈ 175 µM)	128 (≈ 175 µM)	32 (≈ 43.9 µM)	–	128 (≈ 175 µM)	4 (≈ 5.48 µM)	128 (≈ 175 µM)	64 (≈ 87.7 µM)	–	–	–
CCCCNC(=O)O[C@H]1[C@H](C)[C@@H](O[C@@H]2O[C@H](C)C[C@H](N(C)C)[C@H]2O)[C@](C)(OC)C[C@@H](C)/C(=N/OCc2ccccc2Cl)[C@H](C)[C@@H](O)[C@](C)(O)[C@@H](CC)OC(=O)[C@@H]1C	128 (≈ 154 µM)	2 (≈ 2.41 µM)	128 (≈ 154 µM)	0.5 (≈ 0.604 µM)	128 (≈ 154 µM)	128 (≈ 154 µM)	8 (≈ 9.66 µM)	–	128 (≈ 154 µM)	1 (≈ 1.21 µM)	8 (≈ 9.66 µM)	4 (≈ 4.83 µM)	–	32	32
CC[C@H]1OC(=O)[C@H](C)[C@@H](OC(=O)NCc2ccc(N)cc2)[C@H](C)[C@@H](O[C@@H]2O[C@H](C)C[C@H](N(C)C)[C@H]2O)[C@](C)(OC)C[C@@H](C)/C(=N/OCc2ccccc2Cl)[C@H](C)[C@@H](O)[C@]1(C)O	128 (≈ 146 µM)	4 (≈ 4.56 µM)	128 (≈ 146 µM)	0.5 (≈ 0.57 µM)	128 (≈ 146 µM)	128 (≈ 146 µM)	16 (≈ 18.2 µM)	–	128 (≈ 146 µM)	1 (≈ 1.14 µM)	16 (≈ 18.2 µM)	16 (≈ 18.2 µM)	–	–	–
CC[C@H]1OC(=O)[C@H](C)[C@@H](OC(=O)NCc2ccc(Cl)cc2)[C@H](C)[C@@H](O[C@@H]2O[C@H](C)C[C@H](N(C)C)[C@H]2O)[C@](C)(OC)C[C@@H](C)/C(=N/OCc2ccccc2Cl)[C@H](C)[C@@H](O)[C@]1(C)O	128 (≈ 143 µM)	2 (≈ 2.23 µM)	128 (≈ 143 µM)	0.5 (≈ 0.557 µM)	128 (≈ 143 µM)	128 (≈ 143 µM)	4 (≈ 4.46 µM)	64	128 (≈ 143 µM)	2 (≈ 2.23 µM)	8 (≈ 8.92 µM)	8 (≈ 8.92 µM)	64	32	32
CC[C@H]1OC(=O)[C@H](C)[C@@H](OC(=O)NCCc2ccc(O)cc2)[C@H](C)[C@@H](O[C@@H]2O[C@H](C)C[C@H](N(C)C)[C@H]2O)[C@](C)(OC)C[C@@H](C)/C(=N/OCc2ccccc2Cl)[C@H](C)[C@@H](O)[C@]1(C)O	128 (≈ 143 µM)	1 (≈ 1.12 µM)	128 (≈ 143 µM)	0.25 (≈ 0.28 µM)	128 (≈ 143 µM)	128 (≈ 143 µM)	4 (≈ 4.48 µM)	–	128 (≈ 143 µM)	0.5 (≈ 0.56 µM)	8 (≈ 8.96 µM)	4 (≈ 4.48 µM)	–	32	32
CC[C@H]1OC(=O)[C@H](C)[C@@H](O[C@H]2C[C@@](C)(OC)[C@@H](O)[C@H](C)O2)[C@H](C)[C@@H](O[C@@H]2O[C@H](C)C[C@H](N(C)C)[C@H]2O)[C@](C)(O)C[C@@H](C)CN(C)[C@H](C)[C@@H](O)[C@]1(C)O [AZITHROMYCIN]	128 (≈ 171 µM)	0.5 (≈ 0.668 µM)	8 (≈ 10.7 µM)	4 (≈ 5.34 µM)	8 (≈ 10.7 µM)	16 (≈ 21.4 µM)	256 (≈ 342 µM)	–	128 (≈ 171 µM)	0.03 (≈ 0.0401 µM)	256 (≈ 342 µM)	0.25 (≈ 0.334 µM)	–	–	–
CC[C@H]1OC(=O)[C@H](C)[C@@H](O[C@H]2C[C@@](C)(OC)[C@@H](O)[C@H](C)O2)[C@H](C)[C@@H](O[C@@H]2O[C@H](C)C[C@H](N(C)C)[C@H]2O)[C@](C)(OC)C[C@@H](C)C(=O)[C@H](C)[C@@H](O)[C@]1(C)O [CLARITHROMYCIN]	128 (≈ 171 µM)	0.25 (≈ 0.334 µM)	64 (≈ 85.6 µM)	2 (≈ 2.67 µM)	32 (≈ 42.8 µM)	32 (≈ 42.8 µM)	256 (≈ 342 µM)	–	128 (≈ 171 µM)	0.03 (≈ 0.0401 µM)	256 (≈ 342 µM)	0.25 (≈ 0.334 µM)	–	–	–
